Results from article PMC9072656, “Inhibition of Human Sulfotransferases by Phthalate Monoesters” (Frontiers in Endocrinology, 2022).

Columns and labels:
Type in all cases: biochemical
SULT1B1 [1] = target: T1, SULT1B1 (Homo sapiens, UniProt O43704); test: inhibition of 4-nitrophenol sulfation, UPLC-UV
T1 construct: recombinant, purchased from BD Gentest
From the text: inhibition of 4-nitrophenol sulfation, UPLC-UV on SULT1B1

SULT1A1 = target: T2, SULT1A1 (Homo sapiens, UniProt P50225); test: inhibition of 4-nitrophenol sulfation, UPLC-UV
T2 construct: recombinant, purchased from BD Gentest
From the text: inhibition of 4-nitrophenol sulfation, UPLC-UV on SULT1A1

SULT1E1 [2] = target: T3, SULT1E1 (Homo sapiens, UniProt P49888); test: inhibition of 4-nitrophenol sulfation, UPLC-UV
T3 construct: recombinant, purchased from BD Gentest
T3 sequence (P49888 1-294): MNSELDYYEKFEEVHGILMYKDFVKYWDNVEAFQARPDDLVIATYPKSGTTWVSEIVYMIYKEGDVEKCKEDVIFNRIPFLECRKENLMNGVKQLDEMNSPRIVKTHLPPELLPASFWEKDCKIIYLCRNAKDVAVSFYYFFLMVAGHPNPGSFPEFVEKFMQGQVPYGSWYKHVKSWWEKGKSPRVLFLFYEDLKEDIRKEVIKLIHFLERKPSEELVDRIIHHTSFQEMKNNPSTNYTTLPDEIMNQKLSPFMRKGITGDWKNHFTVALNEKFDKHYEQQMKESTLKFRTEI
From the text: inhibition of 4-nitrophenol sulfation, UPLC-UV on SULT1E1

SULT1E1 [3] = target: T3, SULT1E1; test: inhibition of 4-nitrophenol sulfation, UPLC-UV, Lineweaver-Burk slope replot
SULT1B1 [4] = target: T1, SULT1B1; test: as above

T1 sequence (O43704 whole entry): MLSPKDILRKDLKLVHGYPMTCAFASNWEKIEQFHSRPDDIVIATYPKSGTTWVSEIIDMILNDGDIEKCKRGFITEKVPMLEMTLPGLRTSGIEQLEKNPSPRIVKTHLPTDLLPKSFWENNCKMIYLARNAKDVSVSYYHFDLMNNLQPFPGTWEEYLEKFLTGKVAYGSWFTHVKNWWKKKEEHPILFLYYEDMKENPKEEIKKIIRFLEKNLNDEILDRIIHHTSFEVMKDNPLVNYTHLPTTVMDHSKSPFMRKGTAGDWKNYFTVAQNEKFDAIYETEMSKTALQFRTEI
T2 sequence (P50225 whole entry): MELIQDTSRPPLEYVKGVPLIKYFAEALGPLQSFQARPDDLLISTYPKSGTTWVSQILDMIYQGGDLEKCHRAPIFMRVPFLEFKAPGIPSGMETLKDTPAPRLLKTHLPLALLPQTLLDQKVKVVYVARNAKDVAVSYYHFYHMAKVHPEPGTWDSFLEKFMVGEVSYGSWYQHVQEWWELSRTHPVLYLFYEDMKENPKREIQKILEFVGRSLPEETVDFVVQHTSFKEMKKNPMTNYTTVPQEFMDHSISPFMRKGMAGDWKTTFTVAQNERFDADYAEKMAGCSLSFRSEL

Row | Structure (SMILES) | IC50 (SULT1B1 [1]) | IC50 (SULT1A1) | IC50 (SULT1E1 [2]) | Ki (SULT1E1 [3]) | Ki (SULT1B1 [4])
1 | CCCCOC(=O)c1ccccc1C(=O)O [MBP] | 8.49 µM | – | – | – | –
2 | O=C(O)c1ccccc1C(=O)OCc1ccccc1 [MBZP] | – | 0.25 µM | – | – | –
3 | O=C(O)c1ccccc1C(=O)OC1CCCCC1 [MCHP] | 12.8 µM | – | – | – | –
4 | CCCCC(CC)COC(=O)c1ccccc1C(=O)O (centres unmarked) [MEHP] | 13.9 µM | 2.32 µM | 1.73 µM | – | –
5 | CCCCCCOC(=O)c1ccccc1C(=O)O [MHP] | 11.6 µM | 17.1 µM | 4.54 µM | – | –
6 | CCCCCCCCOC(=O)c1ccccc1C(=O)O [MOP] | 2.73 µM | 5.61 µM | 1.77 µM | 5.54 µM | 2.23 µM
